We go through 85 molecules from a melting point compilation (Tetko et al.; mined from patent text by program, amines drawn as free bases though some values may be those of a salt).

A value given as a limit tells only on which side of the number the result lay.

As to `CCc1cn(C2CC(O)C(CNC(=O)c3ccccc3)O2)c(=O)[nH]c1=O` (stereo not given), the melting point was 246 to 247 °C.

Regarding `CC(C)Sc1cc2c(cc1Cl)N=C(c1ccncc1)NS2(=O)=O`, the melting point fell in the range of 254 to 256 °C.

In the case of `CCCC1(C(=O)NCc2ccc(N3Cc4ccccc4C3=O)cc2)c2ccccc2-c2ccccc21`, the melting point lay within 96 to 99 °C.

The molecule `CC(=O)NNC(COCc1cc(C)cc(C)c1)C1c2ccccc2CCc2ccccc21` (stereo not given) yielded a melting point of 109 to 111 °C.

Regarding `CCCCCCCCCCCCCCCCC(C(=O)O)S(C)=O` (stereo not given), the melting point is 93 to 97 °C.

`O=c1[nH]c(=O)n(Cc2ccc(OCCc3coc(-c4ccccc4)n3)cc2)[nH]1` had a melting point of 224 to 230 °C.

As for `COc1cc2c(Nc3ccc(Cl)cc3F)ncnc2cc1OCCNC(=O)OC(C)(C)C`, the melting point was 190 to 191 °C.

As to `Oc1ccc(Oc2ccc(I)cn2)cc1`, the melting point came to 110 °C.

Consider `Cc1cc2c(cc1-c1cc(-c3ccc(C(=O)O)cc3)ccc1-c1ccccc1)C(C)(C)CCC2(C)C`, for which the melting point came to 217 °C.

Take `CCCSc1ncc(C(=O)N[C@H](Cc2ccccc2)C(=O)O)n1Cc1ccccc1Cl`: the melting point was 176 to 177 °C.

Take `Cc1ccc(Oc2ccccc2-n2cc(C(=O)O)cn2)c(O)c1`: the melting point is 219 to 221 °C.

As for `COc1cccc(C(=O)c2sc(NC(=O)c3ccncc3)nc2-c2ccco2)n1`, the melting point was in the range of 247 to 250 °C.

In turn, `O=c1ccc(S(=O)(=O)n2nc(Cl)c3ccccc32)n[nH]1` came in with a melting point of 238 to 239 °C.

For `CC(NC(=O)Nc1ccc(Br)cn1)c1ncccc1F` (stereo not given), the melting point lay within 151 to 154 °C.

`CC(=O)N1CCc2c(sc3nc4ccccc4n23)C1` had a melting point of 181 to 186 °C.

For `COc1cc2c(c3c1OC(C)(C)C3)C(c1cccc(C(=O)Nc3c(Cl)cncc3Cl)c1)=NC(C)(C)C2`, the melting point was in the range of 227 to 228 °C.

Molecule `CC1=C2C(=C(c3ccccc3Cl)N=CC(=O)N2C)NO1` displayed a melting point of 136 to 138 °C.

`Cc1c(C)c2c(c(C)c1O)CCC(C)(CCOc1ccc(CC3SC(=O)NC3=O)cc1)O2` (stereo not given): the melting point fell in the range of 152 to 154 °C.

Consider `CCOC(=O)CCc1cn(CCc2ccc(OCc3nc(-c4ccccc4)oc3C)cc2)nc1-c1ccccc1`, for which the melting point fell in the range of 81 to 82 °C.

`CCOC(=O)Cc1c(-c2ccc(Cl)cc2)nn2cc(Cl)cnc12`: the melting point lay within 139 to 140 °C.

The molecule `CC1(c2ccccc2)C(=O)Nc2cc(Cl)cc(Cl)c2C1=O` (stereo not given) had a melting point of 222 to 225 °C.

Regarding `CCCCCCCOc1ccc2c(c1)N(CCCN1CCC(CCO)CC1)c1cccc(S(=O)(=O)N(C)C)c1S2`, the melting point turned out to be 80 °C.

`CCc1cn(C)c(C2Cc3ccccc3N2C(C)=O)n1` (stereo not given): the melting point lay within 105 to 106 °C.

Molecule `CC(C)(C)c1cc(CCc2n[nH]c(=O)o2)cc(C(C)(C)C)c1O` came in with a melting point of 120 to 123 °C.

With `CC(C)(C)OC(=O)NCc1ccnc(Cl)n1`, the melting point lay within 86 to 88 °C.

As for `O=C(O)CC1c2ccccc2CCc2ccccc21`, the melting point lay in the range of 163 to 165 °C.

`CCCc1nc2c(N)nc3ccccc3c2n1CCC(OCC)OCC` yielded a melting point of 148 to 150 °C.

In turn, `CCCCc1ncc([N+](=O)[O-])c(O)n1` had a melting point of 67 to 69 °C.

For the molecule `O=C(NC(Cc1ccc(OCc2ccccc2)cc1)C(=O)O)c1cn2cc(-c3ccc(Cl)cc3)cnc2n1` (stereo not given), the melting point was 252 to 253 °C.

Molecule `CCCc1nc(C(C)(C)O)c(C(=O)OCC)n1Cc1ccc(-c2ccccc2C(=O)OC(C)(C)C)cc1` displayed a melting point of 90 to 91 °C.

The molecule `Cc1cccc(C)c1NC(=O)CN1CCN(CC(O)C2COc3ccccc3O2)CC1` (stereo not given) registered a melting point of 175 to 176 °C.

For the molecule `C=CCOC(=O)Cc1cccc(NC(=O)NCC(=O)N(CC(=O)OC(C)(C)C)c2ccccc2C(=O)c2ccccc2)c1`, the melting point is 122 to 124 °C.

Molecule `O=C(NOCC(O)CO)c1ccc(F)c(F)c1Nc1ccc(I)cc1F` (stereo not given) gave a melting point of 117 to 118 °C.

`CN1CCN(c2cc3c(cc2F)c(=O)c(C(=O)O)cn3CCO)CC1` returned a melting point of 270 °C.

Regarding `CCOC(=O)c1c[nH]c2ccc(Cc3ccccc3)cc12`, the melting point lay in the range of 119 to 121 °C.

For `CC(C)(C)c1cccc(S(=O)(=O)n2c(Cc3ccc(C4=NOC(=O)C4)cc3)cc3cc(C(F)(F)F)ccc32)c1`, the melting point was determined as 70 °C.

Molecule `OCc1ccc(Br)c(CO)c1` gave a melting point of 106 to 108 °C.

As to `COc1cc(Nc2c(C#N)cnc3cc(/C=C/CCO[Si](C)(C)C(C)(C)C)c(OC)cc23)c(Cl)cc1Cl`, the melting point fell in the range of 97 to 99 °C.

Take `C=C(c1ccc(OC)cc1)c1ccc(OC)cc1`: the melting point came out at 137 °C.

Molecule `Cc1nc(-n2ccc(O)cc2=O)sc1C(=O)NCCc1ccc(F)cc1` registered a melting point of 225 to 227 °C.

For `COc1ccccc1Oc1cccc(CC(=O)O)c1OC`, the melting point was 121 to 122 °C.

`Cc1cc(C(=O)NCc2cccc3c2C(=O)N(C2CCC(=O)NC2=O)C3=O)nn1C` (stereo not given) had a melting point of 213 to 215 °C.

As for `OC1CSC(Oc2cncc(-c3ccc(F)cc3F)c2)C(O)C1O` (stereo not given), the melting point is 221 °C.

In the case of `CC(C)(C)OC(=O)C(=NO)C1=Nc2ccc(Cl)cc2C(c2ccccc2F)=NC1`, the melting point lay in the range of 212 to 214 °C.

Consider `COC(=O)[C@@H]1C[C@H](OC(=O)c2cccnc2)C(=O)[C@H]2[C@@]1(C)CC[C@H]1C(=O)O[C@H](c3ccoc3)C[C@]21C`, for which the melting point is 200 to 204 °C.

In the case of `CC12CCC(=O)C=C1CCC1C2CCC2(C)C(CO)CCC12` (stereo not given), the melting point amounted to 151 °C.

`CN(C)C(=O)CC1CN=C(c2cc3cc(Oc4ccc(S(C)(=O)=O)nc4)ccc3[nH]2)S1` (stereo not given) returned a melting point of 190 to 191 °C.

Molecule `CC12CCC3c4ccc(O)cc4CCC3C1CC(O)C2` (stereo not given) displayed a melting point of 181 to 182 °C.

With `O=C(O)C(Cc1ccccc1)Oc1ccc2cc(-c3csc(-c4ccccc4)n3)ccc2c1` (stereo not given), the melting point is 154 to 160 °C.

As to `Cc1cn(C)cc(-c2ccccc2)c1=O`, the melting point was in the range of 111 to 113 °C.

Molecule `COc1ccc([C@H]2c3[nH]c4ccccc4c3C[C@H]3C(=O)NC(=O)N23)cc1` (relative stereo) registered a melting point of 295 to 305 °C.

`COc1c(C(=O)O)oc2c3ccccc3n(-c3ccccc3)c12` returned a melting point of 154 to 155 °C.

`CCCCCc1nc2c(N)nc3ccccc3c2n1CCCCNS(C)(=O)=O`: the melting point fell in the range of 137 to 138 °C.

In the case of `O=C(O)Cn1c(=O)c(-c2ccccc2Cl)cc2cnc(NC3C4CN(Cc5ccccc5)CC43)nc21` (stereo not given), the melting point fell in the range of 159 to 163 °C.

Take `N#CCN1CCc2ccc3c(c21)CCO3`: the melting point lay within 122 to 124 °C.

As to `O=C1CCCN1C1=CC(CF)(CF)Oc2ccc(C(F)(F)C(F)(F)F)cc21`, the melting point lay within 104 to 105 °C.

`CC(C)(C)OC(=O)N1CCC(c2nc3cc(-c4ccc(S(C)(=O)=O)cc4F)cc(F)c3o2)CC1` showed a melting point of 155 to 158 °C.

`Cc1cc(F)ccc1C(=O)c1ccc(F)cc1C` showed a melting point of 50 to 52 °C.

Molecule `Oc1ccc(-c2nc(COc3ccc(CCCn4ccnc4)cc3)co2)cc1` registered a melting point of 182 to 183 °C.

Molecule `CCOC(=O)CCC(=O)CSc1nc2cc(Cl)c(F)cc2c(O)c1C(=O)OCC` returned a melting point of 144 °C.

Turning to `Oc1cnc(C2CCCCC2)nc1`, the melting point was 163 °C.

Molecule `O=c1c2ccccc2nnn1OS(=O)(=O)c1ccccc1` returned a melting point of 132 to 134 °C.

As to `COc1ccc(-c2cc(Sc3ccc([N+](=O)[O-])cc3[N+](=O)[O-])sc2-c2ccc(OC)cc2)cc1`, the melting point lay in the range of 143 to 145 °C.

On to `CCn1cc(C=O)c(OCc2ccc(OCc3nc(-c4ccco4)oc3C)c(OC)c2)n1`, for which the melting point lay in the range of 103 to 104 °C.

For `Fc1cc2c(cc1F)CC(n1c(-c3nnn[nH]3)c[nH]c1=S)CC2` (stereo not given), the melting point was 195 to 212 °C.

For `O=C(c1ccc(Nc2nc(-c3ccccc3)nc3ccccc23)cc1)N1CCN(c2ncc(Cc3ccccc3)cn2)CC1`, the melting point was over 250 °C.

For `O=C1Nc2ncccc2CN1C1CCN(Cc2ccccc2)CC1`, the melting point was found to be 187 °C.

Molecule `CCCC(=O)NC[C@@H]1C[C@H]1c1cccn2nc(C)cc12` (relative stereo) returned a melting point of 82 to 84 °C.

Molecule `CC(C)(C)OC(=O)N1CCC(=O)N(CCCC=O)CC1` came in with a melting point of 86 to 87 °C.

As for `CCOC(=O)CC(=O)c1ccc(-c2ccc(Cl)cc2)o1`, the melting point fell in the range of 46 to 47 °C.

Consider `Clc1cc2nc3cc4ccccc4[nH]c-3c2cc1Br`, for which the melting point was over 246 °C.

With `O=C(Cc1ccc(C(=O)O)cc1)Nc1cccc(/C=C/c2nc(C3CCC3)cs2)c1`, the melting point is 262 to 263 °C.

Consider `CCOC(=O)c1cc2c(C(=O)CN(Cc3ccccc3)C(C)(C)C)ccc(OCc3ccccc3)c2[nH]1`, for which the melting point lay in the range of 155 to 157 °C.

The molecule `CCCCc1oc2ccccc2c1C(=O)NCc1ccc2cc(O)ccc2c1` had a melting point of 155 to 156 °C.

Consider `CCOC(=O)c1ccc(C(=O)OCC)nc1`, for which the melting point fell in the range of 46 to 47 °C.

As for `COc1ccc2c(c1OC)CCCC2(O)CN` (stereo not given), the melting point fell in the range of 138 to 140 °C.

For the molecule `CCOC(=O)c1ncn2c1CN=C(c1ccccc1)c1cc(Cl)ccc1-2`, the melting point was in the range of 174 to 175 °C.

In turn, `COC(=O)c1cc(OC)c(OC)cc1NC(=O)c1sccc1S(=O)(=O)Nc1onc(C)c1Cl` had a melting point of 167 to 168 °C.

As for `OC1CCCN(CCCOc2ccc3cc(-c4n[nH]c5cc(-c6ccccc6)sc45)[nH]c3c2)C1` (stereo not given), the melting point lay in the range of 213 to 216 °C.

`COc1ccccc1NC(=O)Nc1nc(Nc2ccccc2-c2ccccc2)nc(N(CC(=O)O)Cc2ccc(C)cc2)n1` had a melting point of 132 to 145 °C.

`CCCOc1ccc(-c2ccc3c(c2)C=C(C(=O)O)CCN3C=O)cc1`: the melting point lay within 215 to 217 °C.

For the molecule `CC1=CC2=C(N3CN(O)C=C3N=N2)N(c2ccccc2Cl)C1`, the melting point is 300 °C.

With `O=S(=O)(c1ccc(S(=O)(=O)C2CCCCC2)nc1)C1CCCCC1`, the melting point is 213 °C.

Consider `CC1CC(NC=O)=NN1c1ccc(Cl)cc1` (stereo not given), for which the melting point lay in the range of 112 to 113 °C.

Regarding `CC(C)n1nc(-c2sc(NC(=O)c3ccc(CN(C)CCc4ccccn4)cc3)nc2-c2ccccc2)ccc1=O`, the melting point is 172 to 174 °C.

The melting point is the temperature, or range, at which the solid turns liquid.
